Measurements published in paper PMC11019550, “Potent Inhibition of E. coli DXP Synthase by a gem-Diaryl Bisubstrate Analog” (ACS Infectious Diseases, 2024).

Tests used:
[1] = system: porcine pyruvate dehydrogenase (PDH) E1 subunit; test: Inhibition of porcine pyruvate dehydrogenase (PDH); format: biochemical; conditions: DXPS over porcine PDH
Description: As noted, DXPS has a large active site and follows a mechanism requiring ternary complex formation, distinct from other ThDP-dependent pyruvate decarboxylases. We hypothesized that the sterically demanding scaffold of 8, predicted to engage both substrate binding sites, should display selectivity for DXPS. In a preliminary assessment, we tested 8 as an inhibitor of porcine pyruvate dehydrogenase (PDH) E1 subunit. […] For comparison, the selectivity ratio for 1 was estimated to be >15,000-fold for DXPS over porcine PDH.
Figure S5. Evaluation of inhibitory activity of 8 against mammalian porcine pyruvate dehydrogenase (PDH). Porcine PDH (0.01 U/mL) and inhibitor (8 or MAP positive control) were preincubated for 10 minutes at 25 °C in enzyme buffer (2 mM MgCl2, 5 mM L-cysteine, 1 mM ThDP, 300 μM TCEP, 100 mM HEPES pH 8, 2.5 mM NAD +, and 100 μM coenzyme A). The reaction was initiated by addition of pyruvate (60 μM). The change in absorbance at 340 nm over time was measured and used to calculate the initial rate of NADH formation. The % activity of PDH in the presence of 8 or MAP was plotted using GraphPad Prism version 9. There is 21% inhibition of PDH activity observed in the presence of compound 8 at a concentration of 1 mM.
Experiments were performed in triplicate. Error bars represent standard error.
Figure S6. Replicate progress curves for DXP formation in the presence or absence of inhibitors 8 or 10 with EcDXPS. A) Progress curves for formation of DXP in the presence of 8 display time-dependence of inhibition. B) Progress curves for formation of DXP in the presence of descarboxyl […]

[2] = target: T1, EcDXPS (Escherichia coli, UniProt P77488); test: DXPS-IspC coupled assay, apparent Ki on wildtype EcDXPS; format: biochemical; conditions: for Ki: read-out: Ki^app; for fold change in Ki^app relative to 1: relative to compound 1; for fold increase in Ki^app relative to 8: relative to compound 8
T1 construct: made in house
Method: To determine inhibitor potency, we used the DXPS-DXP reductoisomerae (DXPS-IspC) coupled assay to measure the activity of recombinant purified EcDXPS[24],[25],[31],[44],[50] in the presence of inhibitors. Reactions were initiated by the addition of substrates following a short preincubation of the inhibitor with enzymes, and initial velocities were determined by monitoring reduced nicotinamide adenine dinucleotide phosphate (NADPH) absorbance at 340 nm. Apparent Ki values were determined by fitting initial velocity data to the Morrison equation,[64],[65] which accounts for the tight-binding nature (Ki^app/[E]total < 10)[66] of inhibitors included in this study and allows for rigorous comparison of inhibitor potencies. […] Inhibitor activities were rationalized based on the predictions made from molecular docking of the corresponding PLThDP adducts into the DXPS active site.
All compounds in this study were evaluated as DXPS inhibitors using the DXPS-IspC coupled assay as previously reported.[24] […] The DXPS reaction was initiated by the addition of substrates (50 μM pyruvate and 500 μM D-GAP). The initial rate of depletion of NADPH was monitored at 340 nm and was used to calculate the initial rate of DXP formation in the presence or absence of inhibitor. Initial rates of DXP formation were plotted as a function of [inhibitor], and Ki^app was determined by fitting the data to the Morrison equation (eq 1)[64],[65] in GraphPad Prism. This approach was deemed appropriate as the concentration of free inhibitor cannot be assumed to remain constant for most of these analogs in which Ki^app values approach the concentration of DXPS.[88],[89] Error is reported as standard deviation from three replicates. Active enzyme concentration ([E]T) was determined following Copeland’s method using 8 (Figure S2B).[88]
The coupled assay was initiated by adding 20 μL of a 10× substrate stock to the preincubated E + I mixture to give a final volume of 200 μL. The final concentration of D-GAP was held constant at 500 μM, and [pyruvate] was added to final concentrations between 0 and 250 μM. The initial rate of NADPH depletion in the IspC-coupled reaction was monitored at 340 nm and was used to calculate the initial rate of DXP formation in the presence or absence of inhibitor. Initial rates were plotted as a function of [pyruvate]. […] Model discrimination analysis employing the Akaike information criterion was performed as well as Lineweaver–Burk analysis to determine the mixed model as the best fit. In all cases, error bars represent the standard deviation from three replicates.

[3] = target: T2, WT EcDXPS (Escherichia coli, UniProt P77488); test: Circular dichroism titration (PLThDP formation, apparent KD) on WT EcDXPS; format: binding
T2 construct: made in house
Description: The X-ray structure obtained from cocrystallization of DrDXPS with 1 (Figure 2) indicates the formation of the PLThDP adduct by reaction of the acetylphosphonate mimic of pyruvate with the C2 carbanion of ThDP. We reasoned that 8 should also engage the pyruvate binding site and react with ThDP to form a PLThDP adduct. Circular dichroism (CD) is a powerful tool that can be used to detect LThDP and LThDP-like adducts on thiamin-dependent enzymes,[56],[67]−[75] including DXPS.[31],[36],[43],[44],[49]−[52],[76] DXPS bound to ThDP (E-ThDP) is characterized by a CD λmin at 320 nm, indicative of the 4′-aminopyrimidine (AP) tautomer of ThDP (Figure 8A). Upon addition of pyruvate to E-ThDP, a new positive signal emerges at 313 nm, indicating the formation of LThDP in its 1′,4′-iminopyrimidine (IP) form. Similarly, upon addition of AP-based inhibitors to E-ThDP, the E-PLThDP adduct is formed, characterized by an increasing, broad CD signal.[69],[77],[78] Determination of apparent KD of PLThDP by plotting the CD signal corresponding to PLThDP versus [MAP] has been used as a proxy for PLThDP affinity.[77],[78] To confirm that 8 reacts with ThDP to form PLThDP in the DXPS active site, the change in CD signal upon addition of 8 (0.25–30 μM) to EcDXPS (30 μM) was measured. […] Plotting the CD signal at 294 nm versus affords a curve that approaches the limiting asymptotes defined by infinitely tight binding (Figure 8C),[79],[80] which is expected for this nanomolar inhibitor under the conditions of high [DXPS] required for this method. Since in this case [DXPS] ≫ KD^app, an accurate determination of KD^app is not possible, and data were fit to a quadratic equation to give an estimated upper limit for the value of KD^app (≤0.04 ± 0.01 μM). Addition of 10 to DXPS also results in an increased, broad CD signal (Figure S7A), indicating PLThDP formation. […]
CD titrations of 8 and 10 onto WT, R99A, and R478A EcDXPS variants were conducted at 25 °C under aerobic conditions in 1.5 mL solutions containing 30 μM EcDXPS in 50 mM HEPES pH 8, 100 mM NaCl, 1 mM MgCl2, and 0.2 mM ThDP. […] The CD signals at 294 nm determined from the difference spectra obtained by subtracting the signal of E-ThDP at 294 nm were plotted as a function of [inhibitor] and fit to (1) the quadratic equation described in eq 2 (8 on WT DXPS), where E is the concentration of DXPS taking into account stoichiometric binding and CDmax is the maximal CD signal, or (2) a one-site specific binding curve (all other experiments) using GraphPad Prism Version 9 to calculate an apparent KD. Experiments were conducted in triplicate and the standard error was calculated. […]
At the conclusion of the titration described above, the CD signal at 313 nm (previously characterized for LThDP) was recorded. […]

[4] = target: T3, R99A EcDXPS (Escherichia coli, UniProt P77488, R99A); test: Circular dichroism titration (PLThDP formation, apparent KD) on R99A EcDXPS; format: binding
T3 construct: made in house
Method: (§1) CD titrations of 8 and 10 onto WT, R99A, and R478A EcDXPS variants were conducted at 25 °C under aerobic conditions in 1.5 mL solutions containing 30 μM EcDXPS in 50 mM HEPES pH 8, 100 mM NaCl, 1 mM MgCl2, and 0.2 mM ThDP. Scans were obtained from 280 to 400 nm with a 0.5 s averaging time and 1 nm step following a titration of inhibitor (8: 0.25–30 μM on WT, 0.5–30 μM on R99A and R478A; 10 2.5–30 μM on WT, R99A, and R478A), with a 5 min preincubation of inhibitor with DXPS prior to scanning. […] The CD signals at 294 nm determined from the difference spectra obtained by subtracting the signal of E-ThDP at 294 nm were plotted as a function of [inhibitor] and fit to (1) the quadratic equation described in eq 2 (8 on WT DXPS), where E is the concentration of DXPS taking into account stoichiometric binding and CDmax is the maximal CD signal, or (2) a one-site specific binding curve (all other experiments) using GraphPad Prism Version 9 to calculate an apparent KD. Experiments were conducted in triplicate and the standard error was calculated. [drawing 2] 2
(§2) At the conclusion of the titration described above, the CD signal at 313 nm (previously characterized for LThDP) was recorded. Pyruvate (1 mM) was then added to the mixture, and a CD scan of the resulting solution was conducted as described above, to detect shifts in the CD spectrum that may correlate to LThDP formation. Experiments were conducted in triplicate.

[5] = target: T4, R478A EcDXPS (Escherichia coli, UniProt P77488, R478A); test: Circular dichroism titration (PLThDP formation, apparent KD) on R478A EcDXPS; format: binding
T4 construct: made in house
Method: as §1, §2

[6] = target: T2, WT EcDXPS; test: Time-dependent inhibition, reaction progress curves on WT EcDXPS; format: biochemical; conditions: 8 at 400 or 800 nM, 10 at 1 or 100 μM
Method: To determine if 8 is also a slow-onset inhibitor of DXPS, reaction progress was monitored upon simultaneous addition of substrates (pyruvate and D-GAP) in the presence or absence of inhibitor. In the absence of inhibitor, the reaction progress curve is linear. […] To assess the importance of the carboxyl group of 8, we evaluated descarboxy analog 10 in the same manner.
EcDXPS (100 nM) and IspC (2 μM) were preincubated in enzyme reaction buffer (100 mM HEPES pH 8, 2 mM MgCl2, 5 mM NaCl, 1 mM ThDP, and 200 μM NADPH) with 250 μM D-GAP for 10 min at 25 °C. The reaction was initiated by the addition of pyruvate (1 mM) and inhibitor (400 nM and 800 nM 8; 1 μM and 100 μM 10). The reaction mixture was incubated at 25 °C, and the absorbance of NADPH at 340 nm was monitored. The change in the absorbance of NADPH over time was used to calculate [DXP] (μM) produced over time. Experiments were performed in triplicate.

Structure (SMILES)	Ki [2]	fold change in Ki^app relative to 1 [2]	further results
CC(=O)P(=O)(O)OCCc1cn([C@H](Cc2ccccc2)C(=O)O)nn1 [Compound 1, D-PheTrAP]	260 ± 30 nM		estimated selectivity ratio for DXPS over porcine PDH [1]: > 15,000 fold
CC(=O)P(=O)(O)OCCc1cn([C@H](Cc2ccc(-c3ccccc3)cc2)C(=O)O)nn1 [Compound 2]	8000 ± 1000 nM	30 fold	
CC(=O)P(=O)(O)OCCc1cn([C@H](Cc2ccc(OCc3ccccc3)cc2)C(=O)O)nn1 [Compound 3]	4900 ± 600 nM	19 fold	
CC(=O)P(=O)(O)OCCc1cn([C@H](COCc2ccccc2)C(=O)O)nn1 [Compound 4]	1420 ± 50 nM	~5 fold	
CC(=O)P(=O)(O)OCCc1cn([C@@H](C(=O)O)c2ccccc2)nn1 [Compound 5]	2100 ± 200 nM	8 fold	
CC(=O)P(=O)(O)OCCc1cn([C@@H](C(=O)O)C(c2ccccc2)c2ccccc2)nn1 [Compound 6]	570 ± 120 nM		
CC(=O)P(=O)(O)OCCc1cn([C@H](Cc2cccc3ccccc23)C(=O)O)nn1 [Compound 7]	600 ± 60 nM		
CC(=O)P(=O)(O)OCCc1cn(C(Cc2ccccc2)Cc2ccccc2)nn1 [Compound 10]	11000 ± 1000 nM		Kd [3]: 9000 ± 1000 nM; change in PLThDP CD signal upon addition of 1 mM pyruvate ([3]; WT EcDXPS 30 μM, inhibitor 30 μM): CD signal shift and an increase in amplitude; Kd [4]: 14500 ± 700 nM; Kd [5]: 6000 ± 1000 nM; time dependence of inhibition (progress curve for DXP formation) [6]: linear; fold increase in Ki^app relative to 8 [2]: ~3800 fold
COC(=O)C(Cc1ccccc1)(Cc1ccccc1)n1cc(CCOP(=O)(O)C(C)=O)nn1 [Compound 11]	2900 ± 500 nM		fold increase in Ki^app relative to 8 [2]: 1000 fold
CC(=O)P(=O)(O)OCCc1cn(C2(C(=O)O)Cc3ccccc3C2)nn1 [Compound 12]	290 ± 40 nM		
CC(=O)P(=O)(O)OCCc1cn(C2(C(=O)O)CCCC2)nn1 [Compound 13]	530 ± 110 nM		
CC(=O)P(=O)(O)OCCc1cn([C@H](CC2CCCCC2)C(=O)O)nn1 [Compound 14]	260 ± 60 nM		
CC(=O)P(=O)(O)OCCc1cn([C@@H](C(=O)O)C2CCCCC2)nn1 [Compound 15]	1600 ± 200 nM	6 fold	
CC(=O)P(=O)(O)OCCc1cn([C@@H](C(=O)O)C23CC4CC(CC(C4)C2)C3)nn1 [Compound 16]	360 ± 10 nM		
CC(=O)P(=O)(O)OCCc1cn([C@H](C(=O)O)C23CC4CC(CC(C4)C2)C3)nn1 [Compound 17]	390 ± 60 nM		
CC(=O)P(=O)(O)OCCc1cn([C@@H](CO)Cc2ccccc2)nn1 [Compound 18]	13300 ± 1400 nM		
CC(=O)P(=O)(O)OCCc1cn([C@H](CO)Cc2ccccc2)nn1 [Compound 19]	13400 ± 1500 nM		
CC(=O)P(=O)(O)OCCc1cn(C(c2ccccc2)c2ccccc2)nn1.CCN(CC)CC [Compound 20]	5420 ± 40 nM	~21 fold	
CC(=O)P(=O)(O)OCCc1cn([C@H](Cc2ccccc2)C(c2ccccc2)c2ccccc2)nn1 [Compound 21]			inhibition of EcDXPS ([2]; up to a concentration of 50 μM): Minimal inhibition
CC(=O)P(=O)(O)OCCc1cn([C@@H](Cc2ccccc2)C(c2ccccc2)c2ccccc2)nn1 [Compound 22]	96000 ± 10000 nM	370 fold	α (mixed inhibition model) ([2]; mixed inhibition model): > 1; inhibition mode ([2]; model discrimination by Akaike's information criterion, varied pyruvate): mixed inhibition mode
